In brackets after ≈: the same amount, converted by molar mass.
Legend:
[1] = system: colorectal carcinoma (HCT116); experiment: Cytotoxic MTT assay, HCT116; type: cell-based, human; details: Homo sapiens, HCT-116; MTT, 48 h treatment
Description: (§1) MTT protocol was performed to study the viability of cells after treatment with the tested compounds. The studied cell lines (A549 and HCT116) were cultured and grown in RPMI‐1640 media, while HFB4 cells were reserved in DMEM‐F12 media. Both media were supplemented with 10% FBS, 1% L‐glutamine, and 1% antibiotic–antimycotic mixture. The cell lines were grown at conditions of 37 °C and 5% CO2. 10 × 10^3 of A549, and HCT116 cells and the same count of normal melanocytes (HFB4) were cultured in a 96‐well plate. The selected cultured cells were kept at 37°C and 5% CO2 overnight. Then, the medium was discarded after 24 h of incubation, and 100 µL from different concentrations of the studied compounds dissolved in fresh medium without serum, with final concentrations of 100, 50, 25, 12.5, 6.25, 3.125, 1.56, and 0.78 µg/mL was added. The treated cells were then incubated for 48 h. After that, 50 µL of MTT was added into each well for 4 h for the formazan crystals to be formed. Finally, 200 µl of 10% sodium dodecyl sulphate (SDS) was added to each well, and plates were kept at room temperature overnight to allow the reaction to be stopped. The optical density at 575 nm was read using a microplate multi-well reader, and the percentage of cell viability was calculated. The dose–response curve was drawn to calculate the IC50 values for each compound using the prism GraphPad 5 program, [84]. 5 Fluorouracil, a commercial anticancer drug was used as a reference drug (positive control). Negative untreated cell control was used in this assay.

[2] = system: lung carcinoma (A549); experiment: Cytotoxic MTT assay, A549; type: cell-based; details: Homo sapiens, 48 h treatment
Description: as §1

[3] = system: normal human skin melanocyte cell line (HFB4); experiment: Cytotoxic MTT assay, normal HFB4 cells; type: cell-based; details: 48 h treatment
Description: as §1

[4] = system: A549; parameters: method as in PMID 34939695; details: previous study of the authors; cited from earlier work
[5] = system: HepG2; parameters: method as in PMID 34939695; details: previous study of the authors; cited from earlier work
[6] = system: MCF-7; parameters: method as in Jumaah et al., 65; details: ref Jumaah et al., 65; cited from earlier work
[7] = system: A549; parameters: method as in doi:10.1007/s00706-021-02886-5; details: cited from earlier work
[8] = system: HepG2; parameters: method as in doi:10.1007/s00706-021-02886-5; details: cited from earlier work

| Compound | IC50 [1] [µg/mL] | melting point [°C] | IC50 [2] [µg/mL] | IC50 [3] [µg/mL] | also measured |
| --- | --- | --- | --- | --- | --- |
| N#C/C(=C\c1cn(-c2ccccc2)nc1-c1ccc(Cl)cc1)C(=O)c1c[nH]c2ccccc12 [Compound 7e, (E)-3-(3-(4-Chlorophenyl)-1-phenyl-1H-pyrazol-4-yl)-2-(1H-indole-3-carbonyl)acrylonitrile] | > 100 | 296 to 298 | > 100 | > 100 |  |
| Cc1ccc(-c2nn(-c3ccccc3)cc2/C=C(\C#N)C(=O)c2c[nH]c3ccccc23)cc1 [Compound 7b, (E)-2-(1H-Indole-3-carbonyl)-3-(1-phenyl-3-(p-tolyl)-1H-pyrazol-4-yl)acrylonitrile] | > 100 | 288 to 290 | > 100 | > 100 |  |
| O=c1[nH]cc(F)c(=O)[nH]1 [5 FU, 5-Fluorouracil, reference compound] | 77.2 (≈ 593 µM) |  | 371 (≈ 2850 µM) | 223 (≈ 1710 µM) |  |
| N#C/C(=C\c1cn(-c2ccccc2)nc1-c1ccc(O)cc1)C(=O)c1c[nH]c2ccccc12 [Compound 7d, (E)-3-(3-(4-Hydroxyphenyl)-1-phenyl-1H-pyrazol-4-yl)-2-(1H-indole-3-carbonyl)acrylonitrile] | 43 (≈ 99.9 µM) | 288 to 290 | > 100 | > 100 |  |
| 3-(thiophen-2-yl)pyrazol-4-yl)chalcone |  |  |  |  | IC50 [4]: 66.6 µM; IC50 [5]: 64 µM |
| COc1ccc2c(/C=C/C(=O)c3cc(OC)c(OC)c(OC)c3)cn(C)c2c1 [(E)-3-(6-methoxy-1-methyl-1H-indol-3-yl)-1-(3,4,5-tri-methoxyphenyl)-prop-2-en-1-one] |  |  |  |  | IC50 [6]: 19.2 µM |
| Cc1ccc(C=CC(=O)c2c(C)nn(-c3ccc([N+](=O)[O-])cc3)c2C)cc1 [1-[3,5-dimethyl-1-(4-nitrophenyl)-1H-pyrazol-4-yl]-3-(p-tolyl) prop-2-en-1-one] |  |  |  |  | IC50 A549 [7]: 44.3 µg/mL (≈ 123 µM); IC50 HepG2 [8]: 57.9 µg/mL (≈ 160 µM) |
| COc1ccc(-c2nn(-c3ccccc3)cc2/C=C(\C#N)C(=O)c2c[nH]c3ccccc23)cc1 [Compound 7c, (E)-2-(1H-Indole-3-carbonyl)-3-(3-(4-methoxyphenyl)-1-phenyl-1H-pyrazol-4-yl)acrylonitrile] | > 100 | 252 to 254 | > 100 | > 100 |  |
| N#C/C(=C\c1cn(-c2ccccc2)nc1-c1ccccc1)C(=O)c1c[nH]c2ccccc12 [Compound 7a, (E)-3-(1,3-Diphenyl-1H-pyrazol-4-yl)-2-(1H-indole-3-carbonyl)acrylonitrile] | 93.1 (≈ 225 µM) | 250 to 252 | > 100 | > 100 |  |

— publication PMC10728220, “Novel 3-(pyrazol-4-yl)-2-(1H-indole-3-carbonyl)acrylonitrile derivatives induce intrinsic and extrinsic apoptotic death mediated P53 in HCT116 colon carcinoma” (Scientific Reports, 2023)
